In test [1] the test system is two-month-old C57Bl/6 mice treated with rmCCL11. In words: Barnes maze test in young mice given recombinant mouse CCL11. The class given is in vivo. Conditions: 2-month-old mice; rmCCL11 i.p.; Compound 1 30 mg/kg p.o. b.i.d. From the text:
A modified Barnes maze was used to assess spatial working/episodic like learning and memory. The Barnes maze apparatus consists of a 122 cm diameter circular platform with 40 escape holes, each with a diameter of 5 cm placed along three rings of varying distances from the center of the platform. An escape box is attached to one of the holes and all holes are left uncovered. Bright lights and a fan are trained on the maze to provide adverse stimuli to encourage escape. Visual cues are placed on all four sides of the maze. Mice are given a series of 4 or 5 trials with inter-trial intervals of approximately 10 min, and the maximum duration of each trial is 90 or 120 sec. For each trial, mice are placed in the center of the maze. After 10 seconds, mice are allowed to explore, and the trial is ended if the mouse has found and entered an escape box before the end of the trial. Mice that cannot find the escape box are led to it and allowed to enter and given 30 sec to remain before being returned to its home cage. Training is done for 4 days. Data that is recorded and analyzed include velocity, escape latency, and distance moved.
Two-month-old C57Bl/6 mice were dosed with either vehicle control or Compound 1 by oral gavage twice daily for 18 days. During the last week of treatment, mice were subjected to behavior testing prior to perfusion on the last day of treatment. […]

Test [2] has as its system three-month-old C57 mice treated with LPS. Briefly: Open Field test (anxiety) in mice given daily LPS. The class given is in vivo. Conditions: 3-month-old mice; daily LPS 0.5 mg/kg IP; 30 mg/kg PO BID, after 1 week. On the procedure:
Open Field is used to evaluate general locomotor activity and exploratory behavior in a novel environment. Mice are brought to the experimental room for at least 30 min for acclimation to the experimental room conditions (dim lighting) prior to testing. The testing arena consists of a 50 cm×50 cm square arena. Mice are placed in the center of an arena and tracked for 15 minutes. Time spent in the peripheral and centers zones is analyzed, along with rearing behavior. 70% ethanol is used to clean all surfaces between trials.
Three-month-old C57 mice were given daily doses of lipopolysaccharide (LPS) 0.5 mg/kg IP to induce inflammation and treated with Compound 1 for up to 4 weeks.
Treatment Groups: • Treatment Group 1, Vehicle treatment: 3-month-old C57 mice (n=10) received daily IP injection of LPS for 7 weeks and twice daily (BID) oral gavage (PO) treatment of vehicle solution for up to 4 weeks. • Treatment Group 2, Vehicle treatment and Oxazolone treatment: 3-month-old C57 mice (n=10) received daily IP injection of LPS for 7 weeks and twice daily (BID) oral gavage (PO) treatment of vehicle solution for up to 4 weeks. • Treatment Group 3, Compound 1 treatment and Oxazolone treatment: 3-month-old C57 mice (n=9) received daily IP injection of LPS for 7 weeks and twice daily (BID) oral gavage (PO) treatment of Compound 1, 30 mg/kg, for up to 4 weeks.

“Also recorded” adds a separate entry of the source.

In the case of `Cc1cc(C(=O)N(C)C)cc(NC(=O)[C@H]2CCC(=O)N2C2CCN(Cc3ccc(Cl)c(C)c3)CC2)n1` [Compound 1], the “memory in the Barnes maze” value in test [1] is reported as “significantly improved memory performance”. In test [2], the “anxiety in the Open Field” value is “strongly decreased the increased anxiety; also recorded: decreased the LPS-induced anxiety”.

The record behind these values is patent publication US11382907B2, “Methods and compositions for treating aging-associated impairments using CCR3-inhibitors” (Alkahest, Inc., priority 2017, dated 2022).
